Data as given in ChEMBL document CHEMBL1201862, “PubChem BioAssay data set” (2004).
The source made the active and inactive calls.

Experiments:
[1] = biological target: Induced myeloid leukemia cell differentiation protein Mcl-1 (Homo sapiens, UniProt Q07820); test: MCL1-BIM BH3 interaction inhibitors, dose response, biochemical, fluorescence polarization, BIM-BH3 peptide, 1536-well (AID 2217)
[2] = biological target: Bcl-2-like protein 1 (Homo sapiens, UniProt Q07817); test: BCL-XL inhibitors, dose response, selectivity assay for MCL1 inhibitor project, biochemical, fluorescence polarization, 1536-well (AID 2218)
Bcl-2-like protein 1, sequence (Q07817 whole entry): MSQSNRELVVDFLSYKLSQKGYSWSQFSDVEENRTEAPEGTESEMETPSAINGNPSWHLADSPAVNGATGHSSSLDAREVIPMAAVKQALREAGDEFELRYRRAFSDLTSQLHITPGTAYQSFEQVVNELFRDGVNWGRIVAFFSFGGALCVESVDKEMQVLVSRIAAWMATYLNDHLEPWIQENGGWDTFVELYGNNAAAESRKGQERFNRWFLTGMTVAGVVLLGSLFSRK

[3] = biological target: T1, Endoribonuclease toxin MazF (Escherichia coli K-12, UniProt P0AE70); test: MazF toxin RNase activators, dose response, biochemical, fluorescence, single-stranded RNA substrate, uHTS hits (AID 588481); assay type: functional
T1 sequence (P0AE70 whole entry): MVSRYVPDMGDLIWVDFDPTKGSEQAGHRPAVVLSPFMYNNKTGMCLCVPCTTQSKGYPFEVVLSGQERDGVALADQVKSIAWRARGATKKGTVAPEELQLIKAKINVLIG

[4] = biological target: T1, Endoribonuclease toxin MazF; test: fluorescent RNA oligo signal without MazF, dose response, counter-screen for MazEF activator project, biochemical, fluorescence, single-stranded RNase substrate (AID 588502); assay type: functional
[5] = biological target: NADPH oxidase 1 (Homo sapiens, UniProt Q9Y5S8); assay type: functional, cell-based;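 also: Cell-based assay with luminescence read-out, IC50 derived from inhibitor dose-response curves; intracellular ROS from endogenous NOX1 in intact HT29 colon cancer cells; potency of inhibitors that lower the ROS luminescence signal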
NADPH oxidase 1, sequence (Q9Y5S8 whole entry): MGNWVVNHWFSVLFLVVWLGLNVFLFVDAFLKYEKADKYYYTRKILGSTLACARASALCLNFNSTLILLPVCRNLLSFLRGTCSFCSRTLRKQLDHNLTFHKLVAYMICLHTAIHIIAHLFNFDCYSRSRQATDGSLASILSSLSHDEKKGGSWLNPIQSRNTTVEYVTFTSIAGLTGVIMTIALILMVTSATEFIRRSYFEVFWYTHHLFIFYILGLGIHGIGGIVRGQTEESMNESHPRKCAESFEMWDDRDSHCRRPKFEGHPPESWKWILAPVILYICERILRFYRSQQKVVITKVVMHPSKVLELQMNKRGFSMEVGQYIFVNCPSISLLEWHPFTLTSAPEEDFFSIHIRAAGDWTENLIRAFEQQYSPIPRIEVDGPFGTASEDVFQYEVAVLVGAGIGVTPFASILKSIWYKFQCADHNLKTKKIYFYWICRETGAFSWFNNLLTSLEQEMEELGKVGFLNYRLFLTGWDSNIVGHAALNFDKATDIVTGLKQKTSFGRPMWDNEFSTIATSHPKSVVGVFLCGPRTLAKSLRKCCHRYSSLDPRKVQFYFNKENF

[6] = A High Throughput Confirmatory Assay used to Identify Novel Compounds that Inhibit Mycobacterium Tuberculosis in the absence of Glycerol.; assay type: functional
[7] = test system: Escherichia coli; test: microbe, parasite or virus in culture
[8] = biological target: T2, Mannose-6-phosphate isomerase (Homo sapiens, UniProt P34949); test: inhibitors of human PMI, primary screen, biochemical, fluorescence intensity, coupled assay (AID 1209)
T2 sequence (P34949 whole entry): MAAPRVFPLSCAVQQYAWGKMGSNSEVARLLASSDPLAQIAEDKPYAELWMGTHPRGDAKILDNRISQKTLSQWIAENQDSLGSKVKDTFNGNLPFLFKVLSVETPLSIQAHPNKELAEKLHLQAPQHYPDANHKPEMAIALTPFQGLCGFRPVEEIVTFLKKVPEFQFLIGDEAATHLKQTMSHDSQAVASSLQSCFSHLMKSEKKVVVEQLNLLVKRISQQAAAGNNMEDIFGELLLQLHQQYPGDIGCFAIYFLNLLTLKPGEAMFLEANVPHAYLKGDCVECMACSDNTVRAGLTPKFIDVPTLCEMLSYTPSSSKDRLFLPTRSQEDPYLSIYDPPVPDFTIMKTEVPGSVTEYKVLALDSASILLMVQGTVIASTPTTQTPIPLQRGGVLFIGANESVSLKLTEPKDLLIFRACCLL

[9] = biological target: T2, Mannose-6-phosphate isomerase; test: human PMI inhibitors, high substrate, primary screen, biochemical, fluorescence intensity, high mannose 6-phosphate (AID 1220)
[10] = biological target: T3, Histone-lysine N-methyltransferase NSD2 (Homo sapiens, UniProt O96028); assay type: biochemical
T3 sequence (O96028 whole entry): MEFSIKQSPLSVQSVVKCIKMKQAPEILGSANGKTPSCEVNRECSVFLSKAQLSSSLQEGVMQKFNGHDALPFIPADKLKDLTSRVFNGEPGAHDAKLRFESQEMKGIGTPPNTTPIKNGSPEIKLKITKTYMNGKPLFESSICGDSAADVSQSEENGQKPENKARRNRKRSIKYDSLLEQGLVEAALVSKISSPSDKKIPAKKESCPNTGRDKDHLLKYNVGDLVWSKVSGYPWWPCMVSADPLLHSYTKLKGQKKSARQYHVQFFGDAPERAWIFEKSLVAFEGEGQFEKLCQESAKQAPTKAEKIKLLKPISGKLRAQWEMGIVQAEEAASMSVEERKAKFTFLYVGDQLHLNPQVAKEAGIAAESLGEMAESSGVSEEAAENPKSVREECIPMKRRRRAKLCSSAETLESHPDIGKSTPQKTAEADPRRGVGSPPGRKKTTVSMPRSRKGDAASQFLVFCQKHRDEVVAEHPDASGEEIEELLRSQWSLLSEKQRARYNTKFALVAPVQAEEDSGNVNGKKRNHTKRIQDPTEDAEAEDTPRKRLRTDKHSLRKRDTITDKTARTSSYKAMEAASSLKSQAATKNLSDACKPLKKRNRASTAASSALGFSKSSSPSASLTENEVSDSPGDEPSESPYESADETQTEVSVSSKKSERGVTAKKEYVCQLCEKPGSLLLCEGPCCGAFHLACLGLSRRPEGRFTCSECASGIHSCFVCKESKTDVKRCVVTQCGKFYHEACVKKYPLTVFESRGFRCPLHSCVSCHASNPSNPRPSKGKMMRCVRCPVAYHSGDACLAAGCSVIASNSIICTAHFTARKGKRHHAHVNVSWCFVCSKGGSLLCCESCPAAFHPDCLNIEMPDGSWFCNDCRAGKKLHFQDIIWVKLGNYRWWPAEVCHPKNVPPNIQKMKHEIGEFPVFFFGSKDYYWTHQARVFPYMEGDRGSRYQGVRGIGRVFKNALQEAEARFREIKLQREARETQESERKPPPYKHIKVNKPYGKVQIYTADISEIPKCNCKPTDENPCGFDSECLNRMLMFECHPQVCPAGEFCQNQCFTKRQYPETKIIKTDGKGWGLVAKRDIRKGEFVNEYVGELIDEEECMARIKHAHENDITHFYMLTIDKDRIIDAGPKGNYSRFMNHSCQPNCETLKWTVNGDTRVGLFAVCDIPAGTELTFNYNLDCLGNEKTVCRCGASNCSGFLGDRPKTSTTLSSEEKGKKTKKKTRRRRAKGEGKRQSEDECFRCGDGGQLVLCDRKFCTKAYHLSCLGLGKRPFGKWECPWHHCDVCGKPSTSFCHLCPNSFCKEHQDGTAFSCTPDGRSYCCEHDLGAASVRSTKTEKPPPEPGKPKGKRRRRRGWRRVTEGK

[11] = Luminescence Cell-Based Dose Response to Identify Activators of 5'UTR Stem-Loop Driven Prion Protein mRNA Translation in H4-C Neuroglioblastoma Cells. [Related pubchem assays: 1829 (Project Summary), 1814 (Primary HTS)]; assay type: functional
[12] = Luminescence Cell-Based Dose Response HTS to Identify Activators of Luciferase Translation or Activity in H4 […] Cells. [Related pubchem assays: 1829 (Project Summary), 1814 (Primary HTS)]; assay type: functional
[13] = test system: H4; test: Luminescence Cell-Based Dose Response HTS to Identify Activators of 5'UTR Stem-Loop Driven Prion Protein mRNA Translation in H4 Neuroglioblastoma Cells. [Related pubchem assays: 1829 (Project Summary), 1814 (Primary HTS)]; assay type: functional; conditions: Homo sapiens
[14] = Luminescence Cell-Based Dose Response to Identify Activators of Luciferase Translation or Activity in H4-C Neuroglioblastoma Cells. [Related pubchem assays: 1829 (Project Summary), 1814 (Primary HTS)]; assay type: functional
[15] = Luminescence Cell-Based Dose Confirmation to Identify Activators of 5'UTR Stem-Loop Driven Alpha-Synuclein mRNA Translation in H4 Neuroglioblastoma Cells. [Related pubchem assays: 1829 (Project Summary), 1814 (Primary HTS)]; assay type: functional
[16] = biological target: Protein-tyrosine kinase 2-beta (Homo sapiens, UniProt Q14289);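 also: potency of inhibitors of PYK2 kinase phosphorylation of poly-GT substrate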
Protein-tyrosine kinase 2-beta, sequence (Q14289 whole entry): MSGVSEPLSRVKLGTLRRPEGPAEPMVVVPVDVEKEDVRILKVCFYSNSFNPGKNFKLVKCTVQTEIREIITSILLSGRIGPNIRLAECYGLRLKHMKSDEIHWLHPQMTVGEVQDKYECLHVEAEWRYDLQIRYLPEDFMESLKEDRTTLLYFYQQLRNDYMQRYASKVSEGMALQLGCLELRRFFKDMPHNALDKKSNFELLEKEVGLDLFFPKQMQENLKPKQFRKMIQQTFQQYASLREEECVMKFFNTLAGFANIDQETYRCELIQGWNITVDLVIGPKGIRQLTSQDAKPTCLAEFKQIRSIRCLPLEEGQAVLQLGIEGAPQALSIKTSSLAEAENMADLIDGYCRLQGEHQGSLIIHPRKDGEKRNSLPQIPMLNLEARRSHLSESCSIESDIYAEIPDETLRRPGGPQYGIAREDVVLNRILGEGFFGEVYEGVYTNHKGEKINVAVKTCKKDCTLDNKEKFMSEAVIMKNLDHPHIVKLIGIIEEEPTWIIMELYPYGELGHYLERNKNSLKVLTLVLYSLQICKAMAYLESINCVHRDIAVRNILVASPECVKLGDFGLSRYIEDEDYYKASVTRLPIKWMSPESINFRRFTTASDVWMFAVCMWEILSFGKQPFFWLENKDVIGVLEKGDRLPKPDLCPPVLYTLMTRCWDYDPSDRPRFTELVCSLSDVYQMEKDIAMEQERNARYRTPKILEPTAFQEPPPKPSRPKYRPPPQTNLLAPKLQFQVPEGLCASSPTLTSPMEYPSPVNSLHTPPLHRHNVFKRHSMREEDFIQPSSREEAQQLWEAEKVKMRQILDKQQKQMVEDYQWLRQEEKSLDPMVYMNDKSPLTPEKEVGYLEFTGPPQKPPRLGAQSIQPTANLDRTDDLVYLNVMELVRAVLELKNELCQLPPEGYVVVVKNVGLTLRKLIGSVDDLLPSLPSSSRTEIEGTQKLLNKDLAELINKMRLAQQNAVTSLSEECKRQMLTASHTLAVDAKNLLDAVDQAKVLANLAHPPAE

[17] = NIH-3T3 fibroblast cytotoxicity, dose response, cytotoxicity control, cell-based, fluorescence, Alamar Blue, secondary assay (AID 2327); assay type: functional;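 also: NIH-3T3 mouse fibroblasts cultured with fluconazole at 8 µg/mL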
[18] = test system: BJ; test: cytotoxicity toward BJ-TERT fibroblasts, dose response, cell-based, RAS-independent, luminescence (AID 1933); assay type: functional; conditions: Homo sapiens
[19] = biological target: Galanin receptor type 2 (Homo sapiens, UniProt O43603); test: Dose Response cell-based high-throughput screening assay to identify antagonists of galanin receptor 2 (GALR2). [Related pubchem assays: 828, 866 ]; assay type: functional
Galanin receptor type 2, sequence (O43603 whole entry): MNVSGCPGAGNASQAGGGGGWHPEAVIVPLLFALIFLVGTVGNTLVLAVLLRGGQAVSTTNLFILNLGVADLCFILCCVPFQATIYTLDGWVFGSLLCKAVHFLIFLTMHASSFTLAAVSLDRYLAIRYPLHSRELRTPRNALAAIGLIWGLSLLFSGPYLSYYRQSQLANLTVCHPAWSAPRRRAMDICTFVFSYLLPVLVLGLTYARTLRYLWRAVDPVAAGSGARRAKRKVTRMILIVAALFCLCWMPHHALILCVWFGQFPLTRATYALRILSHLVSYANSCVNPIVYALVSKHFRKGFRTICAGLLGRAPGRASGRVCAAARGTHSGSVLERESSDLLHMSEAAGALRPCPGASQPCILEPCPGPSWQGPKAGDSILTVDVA

[20] = test system: BJ; test: cells; assay type: functional, cell-based; conditions: Homo sapiens
[21] = C. albicans growth with fluconazole, confirmation, fluorescence, retest (AID 2467); assay type: functional, cell-based
[22] = test system: BJ; test: cytotoxicity toward BJ-TERT-LT-ST fibroblasts, dose response, cell-based, RAS-independent, luminescence (AID 1935); assay type: functional; conditions: Homo sapiens;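 also: BJ fibroblasts immortalized with TERT plus LT and ST oncogenes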
[23] = cytotoxicity toward DRD oncogenic fibroblasts, dose response, cell-based, non-viral oncogenic, luminescence (AID 1934); assay type: functional; conditions: Homo sapiens
[24] = biological target: G-protein coupled receptor 55 (Homo sapiens, UniProt Q9Y2T6); test: GPR55 agonists via beta-arrestin recruitment, primary screen, imaging, U2OS cells, beta-arrestin-GFP redistribution (AID 1961); assay type: functional
G-protein coupled receptor 55, sequence (Q9Y2T6 whole entry): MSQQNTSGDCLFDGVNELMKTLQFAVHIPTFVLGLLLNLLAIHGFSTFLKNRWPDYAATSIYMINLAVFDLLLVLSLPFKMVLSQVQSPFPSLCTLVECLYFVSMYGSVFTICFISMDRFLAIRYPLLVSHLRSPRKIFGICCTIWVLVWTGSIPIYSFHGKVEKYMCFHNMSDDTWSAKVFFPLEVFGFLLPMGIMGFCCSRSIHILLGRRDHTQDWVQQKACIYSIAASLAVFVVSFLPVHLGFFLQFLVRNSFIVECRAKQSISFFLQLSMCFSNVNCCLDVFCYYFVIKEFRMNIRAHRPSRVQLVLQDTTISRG

[25] = biological target: T4, Heat shock factor protein 1 (Mus musculus, UniProt P38532); test: HSF1 potentiators in luciferase reporter cells, confirmation, cell-based, NIH3T3, luminescence, dose retest (AID 435004); assay type: functional;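 also: stress induced by proteasome inhibitor MG132 added 30 min after compound; luciferase reporter driven by HSF1 response element in NIH3T3 cells; actives raise luminescence as potentiators of the MG132 stress response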
T4 sequence (P38532 whole entry): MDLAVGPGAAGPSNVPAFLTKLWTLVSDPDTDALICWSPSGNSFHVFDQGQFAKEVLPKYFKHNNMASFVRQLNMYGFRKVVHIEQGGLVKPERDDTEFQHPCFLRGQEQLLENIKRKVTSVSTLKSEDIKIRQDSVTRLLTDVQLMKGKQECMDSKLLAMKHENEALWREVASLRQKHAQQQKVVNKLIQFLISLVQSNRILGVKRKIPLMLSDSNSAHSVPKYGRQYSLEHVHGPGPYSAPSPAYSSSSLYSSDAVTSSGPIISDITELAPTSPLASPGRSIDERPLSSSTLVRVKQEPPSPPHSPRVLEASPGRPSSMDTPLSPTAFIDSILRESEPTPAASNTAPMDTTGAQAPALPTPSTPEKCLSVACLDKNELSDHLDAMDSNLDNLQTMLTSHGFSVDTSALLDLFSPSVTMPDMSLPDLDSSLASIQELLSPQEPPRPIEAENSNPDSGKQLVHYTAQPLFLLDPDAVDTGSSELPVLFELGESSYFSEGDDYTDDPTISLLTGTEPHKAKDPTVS

[26] = biological target: T5, Microphthalmia-associated transcription factor (Homo sapiens, UniProt O75030); test: TRPM1 promoter luciferase signal decrease, dose response, MITF inhibitor project, cell-based, SK-MEL-5, cherry-picked, set 3 (AID 493073); assay type: functional
T5 sequence (O75030 whole entry): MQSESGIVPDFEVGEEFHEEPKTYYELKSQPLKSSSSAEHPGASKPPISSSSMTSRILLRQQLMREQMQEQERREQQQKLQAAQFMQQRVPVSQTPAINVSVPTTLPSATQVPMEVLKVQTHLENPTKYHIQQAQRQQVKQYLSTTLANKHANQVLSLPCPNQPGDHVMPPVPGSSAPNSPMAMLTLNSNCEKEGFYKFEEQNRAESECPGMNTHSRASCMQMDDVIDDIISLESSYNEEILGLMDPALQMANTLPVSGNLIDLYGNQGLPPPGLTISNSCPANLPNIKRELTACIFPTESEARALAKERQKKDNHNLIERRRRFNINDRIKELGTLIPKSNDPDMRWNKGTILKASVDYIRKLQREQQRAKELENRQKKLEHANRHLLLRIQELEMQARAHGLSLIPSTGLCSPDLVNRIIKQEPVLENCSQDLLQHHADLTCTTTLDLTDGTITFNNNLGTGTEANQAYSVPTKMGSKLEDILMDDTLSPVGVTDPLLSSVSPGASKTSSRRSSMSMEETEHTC

[27] = biological target: Heat shock protein HSP 90-alpha (Homo sapiens, UniProt P07900); assay type: functional, organism-based
[28] = biological target: T6, High affinity choline transporter 1 (Homo sapiens, UniProt Q9GZV3); test: CHT inhibitors, dose response, cell-based, 5-point CRC, membrane potential dye (AID 504840); assay type: functional
T6 sequence (Q9GZV3 whole entry): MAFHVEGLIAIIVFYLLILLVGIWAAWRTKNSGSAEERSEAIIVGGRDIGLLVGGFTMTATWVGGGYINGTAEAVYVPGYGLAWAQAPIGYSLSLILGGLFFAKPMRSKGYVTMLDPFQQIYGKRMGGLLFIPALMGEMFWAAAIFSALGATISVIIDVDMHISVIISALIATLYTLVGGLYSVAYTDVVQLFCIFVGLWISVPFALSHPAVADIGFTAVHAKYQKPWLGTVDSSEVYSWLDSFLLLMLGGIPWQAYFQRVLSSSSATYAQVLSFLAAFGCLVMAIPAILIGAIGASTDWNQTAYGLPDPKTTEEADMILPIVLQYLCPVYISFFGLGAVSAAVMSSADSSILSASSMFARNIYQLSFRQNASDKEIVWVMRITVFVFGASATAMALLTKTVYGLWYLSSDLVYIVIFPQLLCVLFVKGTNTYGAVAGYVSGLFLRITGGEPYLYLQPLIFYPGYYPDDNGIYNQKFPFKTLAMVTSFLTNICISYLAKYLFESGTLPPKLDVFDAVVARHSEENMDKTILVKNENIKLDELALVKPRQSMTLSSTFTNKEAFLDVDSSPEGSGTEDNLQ

Induced myeloid leukemia cell differentiation protein Mcl-1, sequence (Q07820 whole entry): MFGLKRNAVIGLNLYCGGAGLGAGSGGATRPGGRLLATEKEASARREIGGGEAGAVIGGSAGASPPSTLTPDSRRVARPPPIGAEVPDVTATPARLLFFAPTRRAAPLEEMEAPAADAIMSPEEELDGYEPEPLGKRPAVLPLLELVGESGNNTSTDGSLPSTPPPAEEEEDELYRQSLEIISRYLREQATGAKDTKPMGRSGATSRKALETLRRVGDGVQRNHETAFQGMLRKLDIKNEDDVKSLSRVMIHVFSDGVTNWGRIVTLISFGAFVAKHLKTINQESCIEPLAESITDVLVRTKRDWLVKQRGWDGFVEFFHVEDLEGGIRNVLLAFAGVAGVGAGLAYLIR

O=C(Oc1ccc2c(c1)O/C(=C\c1ccncc1)C2=O)c1ccccc1
IC50 [1]: 11.7 µM (not active)
IC50 [2]: 15.5 µM (not active)
EC50 [3]: > 99 µM (inactive)
EC50 [4]: 48 µM (inactive)

Ic1ccc(-c2nc(-c3ccccc3)c(-c3ccccc3)[nH]2)cc1
IC50 [5]: > 17 µM (not active)

O=C1c2ccccc2CC1Sc1nnc(-c2ccncc2)o1 (stereo not drawn)
IC50 [6]: > 100 µM (active)
AC50 [7]: 268 µM (active)

CN1c2cccc3cccc(c23)N(C)C1(C)C
IC50 [8]: > 50 µM (not active)
IC50 [9]: > 50 µM (not active)
AC50 [10]: 11.4 µM (active)

Cc1ccc(C(=O)CSc2nsc(C)c2C#N)cc1
EC50 [11]: 0.646 µM (active)
EC50 [12]: < 0.1 µM (inconclusive)
EC50 [13]: > 120 µM (not active)
EC50 [14]: 1.49 µM (active)
EC50 [15]: 0.976 µM (active)

COCCO/C(O)=C1\C(C)=NC2=C(C(=O)CC(c3cccs3)C2)C1c1ccsc1 (stereo not drawn)
IC50 [16]: > 69.5 µM (not active)

CC(=O)SC(C[N+](=O)[O-])c1cn(C(C)=O)c2ccccc12 (stereo not drawn)
EC50 [17]: 12.9 µM (inconclusive)
EC50 [18]: 5.02 µM (inconclusive)
IC50 [19]: 14.4 µM (not active)
EC50 [20]: > 150 µM (inconclusive)
EC50 [21]: 19.5 µM (active)
EC50 [22]: 6.21 µM (inconclusive)
EC50 [23]: 6.74 µM (active)
EC50 [24]: > 32 µM (inactive)
EC50 [25]: 6.84 µM (active)
AC50 [26]: 3.54 µM (active)
AC50 [27]: 1.48 µM (active)
IC50 [28]: 14.5 µM (active)
